Common to all, as to format: physicochemical
Data set [1] can be described thus: In-line UV/vis transmission crystallinity detection of piroxicam in Kollidon VA64 (solubility maximum, twin-screw extruder). As to conditions: in Kollidon VA64, hot melt extrusion, amorphous, homogeneous and transparent below this loading.
Source text: A twin-screw extruder was used to assess the solubility maximum for a mixture of the non-steroidal anti-inflammatory drug (NSAID) piroxicam (PRX) and the carrier polymer Kollidon VA64. The mixture was continuously analysed while traversing the extruder screw using a system of in-line UV/vis spectrometers and the input of the PRX was adjusted until crystallinity was first detected.
UV/vis transmission spectra were obtained for 15, 18, 20, 23 and 25 wt % PRX samples.
The nature of data set [2]: Off-line XRD crystallinity detection of PRX / Kollidon VA64 mixtures (Bruker instrument). Particulars: in Kollidon VA64, milled samples, no crystallinity detected at 25 wt %. On the procedure: The samples were analysed by a UV/vis spectrometer in transmission mode (FIG. 1) and an XRD spectrum of the same samples was also obtained for comparison and verification (FIG. 2). The XRD samples required milling and analysis offline whereas UV/vis has the advantages that it can be performed rapidly in-line without milling.
XRD spectra were obtained on a Bruker instrument for each of pure solid PRX, Kollidon VA64, and 20, 25 and 30 wt % PRX mixtures separately. […] Only at 30 wt % PRX loading, well above the maximum solubility when there is substantially higher crystallinity, does the XRD spectra first show peaks that correlate with the pure XRD spectra of PRX.

Data set [3] is described as follows: Particle size distribution of the components (Mastersizer laser diffraction). On the procedure: In some cases, the particle size of the dispersion or solution is measured prior to being subjected to UV/vis spectroscopy. Known methods of sizing the dispersion or solution include sieve analysis, direct imaging and laser diffraction. In the present disclosure, a Mastersizer (Malvern Instruments) laser diffraction device was used.

As to `CN1C(C(=O)Nc2ccccn2)=C(O)c2ccccc2S1(=O)=O` [PRX, 4-hydroxy-2-methyl-1,1-dioxo-N-pyridin-2-yl-1$1^6,2-benzothiazine-3-carboxamide], the “PRX loading at which the first microcrystalline domains are observed (solubility maximum in carrier)” value in data set [1] is 25 wt %. Besides, the “PRX loading at which XRD spectra first show peaks of crystalline PRX” value in data set [2] was determined as 30 wt %.
Take `Cc1cc(C#N)cc(C)c1Oc1nc(Nc2ccc(C#N)cc2)nc(N)c1Br` [crystalline etravirine (ETR), 4-[6-amino-5-bromo-2-(4-cyanoanilino)pyrimidin-4-yl]oxy-3,5-dimethylbenzonitrile]: in data set [3], the D10 is reported as 8 μm, the D50 was found to be 26 μm and the D90 is on record as 87 μm.

(Values after patent publication US12313613B2, “Method of testing crystallinity in amorphous pharmaceutical compositions” (ColVisTec AG, priority 2019, dated 2025).)
